From PMC8618034, “In Silico Structure-Guided Optimization and Molecular Simulation Studies of 3-Phenoxy-4-(3-trifluoromethylphenyl)pyridazines as Potent Phytoene Desaturase Inhibitors” (Molecules, 2021)
Read-outs that look alike come from different tables or passages of the source.

Target: T1, Synechococcus PDS (phytoene desaturase) (Synechococcus elongatus, UniProt P26294)
T1 construct: recombinant, pET15b-Synechococcus PDS
Test: SPR (Biacore 8K, protein immobilized on CM5 chip)
Format: binding

T1 sequence (P26294 whole entry): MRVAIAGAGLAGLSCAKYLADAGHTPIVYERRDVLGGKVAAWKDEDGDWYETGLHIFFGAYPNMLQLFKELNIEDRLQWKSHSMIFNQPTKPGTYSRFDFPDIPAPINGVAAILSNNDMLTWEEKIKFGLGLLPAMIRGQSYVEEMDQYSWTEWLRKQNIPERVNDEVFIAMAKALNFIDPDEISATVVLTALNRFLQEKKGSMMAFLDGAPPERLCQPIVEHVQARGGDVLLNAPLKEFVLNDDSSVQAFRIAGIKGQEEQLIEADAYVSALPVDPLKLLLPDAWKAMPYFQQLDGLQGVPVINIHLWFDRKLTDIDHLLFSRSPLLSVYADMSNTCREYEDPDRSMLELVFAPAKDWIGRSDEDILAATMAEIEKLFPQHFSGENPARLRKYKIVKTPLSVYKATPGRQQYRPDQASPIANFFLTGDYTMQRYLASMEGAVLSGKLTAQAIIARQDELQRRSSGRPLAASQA

Kd (read-out: Kd) [µM]	Structure (SMILES)	Kd [µM]
7.08	Cc1cc(-c2cccc(C(F)(F)F)c2)c(Oc2ccc(C(F)(F)F)cc2)nn1 [2a, 6-methyl-3-(4-(trifluoromethyl)phenoxy)-4-(3(trifluoromethyl)phenyl)pyridazine]	
63.2	CCc1cc(-c2cccc(C(F)(F)F)c2)c(Oc2cc(F)c(F)c(F)c2)nn1 [3h, 6-ethyl-4-(3-(trifluoromethyl)phenyl)-3-(3,4,5-trifluorophenoxy)pyridazine]	
43.5	Cc1cc(-c2cccc(C(F)(F)F)c2)c(Oc2ccc(C#N)cc2)nn1 [compound 1]	
	O=C(Nc1ccc(F)cc1F)c1cccnc1Oc1cccc(C(F)(F)F)c1 [diflufenican]	70.8
